One assay deals with cysts of A. castellani. Briefly: Susceptibility test for Acanthamoeba cysts (viable cells on non-nutrient agar plates after soaking in contact lens solution). Type of assay: cell-based, A. castellanii. The arrangement: key: +: viable cells; −: no viable cells. As to conditions: after 8 hours soaking; 10^3 cysts; plates incubated at 30° C. for 14 days; Miltefosine alone tested at 80 μM. Here is the method:
The activity of various multi-purpose contact lens solutions (for cleaning, rinsing, storing and disinfecting a contact lens while the lens is not worn) was tested against cysts of A. castellani.
Contact lens disinfection solutions tested (Table 1) were purchased from local retail stores. In case of the H2O2 based systems, neutralization of the 3% hydrogen peroxide is achieved within 6 hours by a catalytic platinum disk which is located in the contact lens storage case according to the manufacturer's instructions. Miltefosine was dissolved in 5% Ethanol (2 mM stock solution) and tested at 80 μM in Acanthamoeba medium (PYG) or in contact lens disinfection medium.
A. castellanii, was isolated from a patient suffering from a severe Acanthamoeba keratitis. Isolation was achieved by inoculating corneal epithelium onto non-nutrient agar plates covered with a 48-h-old culture of Escherichia coli. The isolate was cloned by transferring a single cyst onto a fresh plate with a micromanipulator. Axenisation was achieved by harvesting cysts from parallel cultures and incubating them in 3% HCl overnight in order to eliminate coexisting bacteria. […] The cysts were harvested by centrifugation (500 g/7 minutes), resuspended in sterile 0.9% NaCl and counted in a BurkerTurk haemocytometer. […]

Another assay concerns Acanthamoeba. Conditions: cited from earlier work.

On to `CCCCCCCCCCCCCCCCOP(=O)([O-])OCC[N+](C)(C)C` [Miltefosine, 1-hexadecylphosphorylcholine], for which the “Viable Acanthamoeba cells after disinfection with commercially available disinfectants” value in the assay on cysts of A. castellani is recorded as “−”.
As for `[H]/N=C(\N/C(=N/[H])NCCCCCCNC(=N)NC(=N)Nc1ccc(Cl)cc1)Nc1ccc(Cl)cc1` [chlorhexidine], the “Effectiveness against Acanthamoeba among contact lens disinfectants” value with Acanthamoeba is given as “most effective”.

Source of the values: patent US20080300221A1, “Contact Lens Care Composition” (priority 2005, published 2008).
